Measurements from ChEMBL document CHEMBL1201862, “PubChem BioAssay data set” (2004).
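Assay format: 96-well plates, 48-hour exposure. At the GI50, growth is halved.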 Calls of active or inactive are those of the source. No stated cut-off is given here; in the data, active = GI50 up to about 1.1 µM and inactive = higher.

Tests used:
Test in all cases: inhibition of tumour cell growth, NCI panel, 48 h
[1] = tested on: HT-29
[2] = tested on: UACC-257
[3] = tested on: SNB-75
[4] = tested on: HOP-92
[5] = tested on: A498
[6] = tested on: HOP-62
[7] = tested on: U-251
[8] = tested on: Malme-3M
[9] = tested on: SN12C
[10] = tested on: 786-0
[11] = tested on: SR
[12] = tested on: CAKI-1
[13] = tested on: NCI-H522
[14] = tested on: OVCAR-5
[15] = tested on: SNB-19
[16] = tested on: SK-OV-3
[17] = tested on: SK-MEL-5
[18] = tested on: NCI-H226
[19] = tested on: SF-539
[20] = tested on: HL-60

Row | Compound | GI50 [1] | GI50 [2] | GI50 [3] | GI50 [4] | GI50 [5] | GI50 [6] | GI50 [7] | GI50 [8] | GI50 [9] | GI50 [10] | GI50 [11] | GI50 [12] | GI50 [13] | GI50 [14] | GI50 [15] | GI50 [16] | GI50 [17] | GI50 [18] | GI50 [19] | GI50 [20]
1 | O=C(CSC1=NCCN1)Nc1ccccc1 | 31.4 µM (inactive) | 17.1 µM (inactive) | 21.5 µM (inactive) | 26.8 µM (inactive) | 35 µM (inactive) | 48 µM (inactive) | 18.3 µM (inactive) | 24.8 µM (inactive) | 17.5 µM (inactive) | 16.1 µM (inactive) | 44.3 µM (inactive) | 73.8 µM (inactive) | 19 µM (inactive) | 29.3 µM (inactive) | 69.3 µM (inactive) |  |  |  |  | 
2 | O=c1c(C(c2ccc([N+](=O)[O-])cc2)c2c(O)c3ccccc3n(-c3ccccc3)c2=O)c(O)c2ccccc2n1-c1ccccc1 |  |  |  | 9.18 µM (inactive) |  | 14.5 µM (inactive) | 10.2 µM (inactive) | 13 µM (inactive) | 11.7 µM (inactive) | 11.6 µM (inactive) | 9.98 µM (inactive) | 44.4 µM (inactive) | 22.2 µM (inactive) | 51.9 µM (inactive) | 7.28 µM (inactive) | 7.38 µM (inactive) | 11.4 µM (inactive) | 24.1 µM (inactive) | 12.6 µM (inactive) | 
3 | COC(=O)CCc1c(Cc2ccc[nH]2)[nH]c(C(=O)OCc2ccccc2)c1C | 20.4 µM (inactive) | 18.4 µM (inactive) |  | 23 µM (inactive) | 28.9 µM (inactive) | 19.5 µM (inactive) | 22.3 µM (inactive) | 18.9 µM (inactive) | 18.1 µM (inactive) | 16.3 µM (inactive) | 30.8 µM (inactive) | 25.1 µM (inactive) | 27.3 µM (inactive) | 35.9 µM (inactive) | 28.2 µM (inactive) | > 100 µM (inactive) | 15.8 µM (inactive) | 17.1 µM (inactive) | 19.1 µM (inactive) | 
4 | COc1cc2c(cc1OC)CC(N=[N+]=[N-])c1cc(OC)c(OC)cc1/C=C\2 (stereo not drawn) | 44.5 µM (inactive) | 46 µM (inactive) | 16.6 µM (inactive) | 12.9 µM (inactive) | > 100 µM (inactive) | 77.6 µM (inactive) | 51.2 µM (inactive) |  | 68.5 µM (inactive) | 34.1 µM (inactive) | > 100 µM (inactive) | 21 µM (inactive) | 50.9 µM (inactive) | > 100 µM (inactive) | 34 µM (inactive) | 38.5 µM (inactive) | 23.8 µM (inactive) | 3.18 µM (inactive) | 39.9 µM (inactive) | 10 µM (inactive)
5 | O=C(CC(=O)N(C(=O)c1ccccc1)c1ccc(Cl)cc1)N/N=C\c1cc(/N=N/c2ccccc2Cl)ccc1O | > 100 µM (inactive) |  | 12.4 µM (inactive) | 23.5 µM (inactive) | 31.3 µM (inactive) | 39.5 µM (inactive) | 39 µM (inactive) | > 100 µM (inactive) | 42.5 µM (inactive) | 38.1 µM (inactive) | 17.9 µM (inactive) | > 100 µM (inactive) |  | > 100 µM (inactive) | 18.2 µM (inactive) | 52.1 µM (inactive) |  | > 100 µM (inactive) | 34.8 µM (inactive) | 12.7 µM (inactive)
6 | CC(C)(C)C(=O)C(N)C(=O)C(C)(C)C |  | > 100 µM (inactive) | > 100 µM (inactive) | > 100 µM (inactive) |  | > 100 µM (inactive) | > 100 µM (inactive) | > 100 µM (inactive) | > 100 µM (inactive) | > 100 µM (inactive) | > 100 µM (inactive) | > 100 µM (inactive) | > 100 µM (inactive) | > 100 µM (inactive) | > 100 µM (inactive) | > 100 µM (inactive) | > 100 µM (inactive) |  | > 100 µM (inactive) | > 100 µM (inactive)
7 | Nc1cc(N)c(/N=N/c2cccc3c(S(=O)(=O)O)cccc23)cc1/N=N/c1cc([N+](=O)[O-])ccc1O | 43.8 µM (inactive) | 26.3 µM (inactive) | 49.1 µM (inactive) | 35.6 µM (inactive) | 27 µM (inactive) | 29.9 µM (inactive) | 13.7 µM (inactive) | 17.3 µM (inactive) | 32.3 µM (inactive) | 42.1 µM (inactive) | 13.5 µM (inactive) | 23.6 µM (inactive) | 17.5 µM (inactive) | 23.3 µM (inactive) | 48.9 µM (inactive) | 59.7 µM (inactive) | 17.6 µM (inactive) |  | 38 µM (inactive) | 
8 | C[C@H](N)C(=O)N[C@@H]1[C@H]2C(=C(O)C[C@@H](O)[C@@H]2O)C(=O)O[C@]1(C)C(Cl)Cl [BACTOBOLIN] | 0.155 µM (active) | 0.378 µM (active) | 0.185 µM (active) | 0.111 µM (active) | 0.329 µM (active) | 0.152 µM (active) | 0.144 µM (active) | 0.278 µM (active) | 0.164 µM (active) | 0.0655 µM (active) | 0.0776 µM (active) | 0.166 µM (active) | 0.16 µM (active) | 0.604 µM (active) | 0.167 µM (active) | 0.271 µM (active) | 0.129 µM (active) | 0.195 µM (active) | 0.229 µM (active) | 
